# How the values were obtained:
# Type in all cases: in vivo
# [1] = tested on: TG-mice; assay: Elevated plus maze (EPM), anxiety in TG-mice; conditions: 2 mg/kg, 3 months
# Source text: 2) Whole-Cell Patch-Clamp Recordings from Brain Slices. Transverse slices (400 lm) of dorsal hippocampus were obtained from wt and TG-SwDI mice (male, 20 months old) using a vibratome (VT 100; Technical Products International). Slices were perfused continuously with artificial CSF (ACSF) composed of the following (in mM): 125 NaCl, 2.5 KCl, 2 CaCl2, 2 MgCl2, 26 NaHCO3, and 10 D-glucose. The ACSF was bubbled continuously with 95% O2/5% CO2 to ensure adequate oxygenation of slices and a pH of 7.4 and kept at 34±0.5° C. for perfusion. TTX (0.5 μM), APV (40 μM), CNQX (10 μM), and CGP54626 (1 μM, GABABR antagonist) were added to ACSF to pharmacologically isolate GABAAR-mediated mIPSCs. […] Animals were placed on the central area of the maze, tested for 5 min and video recorded. The following measures were scored: number of entries into open arms, closed arms, or center platform and time spent in each of these areas. […]
# 6) The elevated plus maze assay (EPM) was performed in a quiet and dark room with only a low power red light. […] were placed on the central area of the maze, and their behavior video recorded for 5 min. The number of entries into open arms, closed arms, or center platform and time spent in each of these areas were scored during off-line analysis. […]
# Locomotor activity was assayed with open field test. Running distance is one of the parameters quantifying locomotor activity (FIG. 4A). […]
# [2] = tested on: TG-mice; assay: Open field test of locomotor activity; conditions: 3 months
# Description: 5) Locomotor assay: To measure the locomotor activity, the numbers of total entries were measured for each animal. Statistical differences were determined using ANOVA. These experiments will determine the effects of D-P on anxiety levels.
# DHM-Piperidine Complex (D-P) can replicate DHM effects to improve behavioral impairment in TG-mice. We examined the effect of D-P on AD symptom-like behavior in aged TG2576 mice compared with age-matched wt mice. Mice were divided into three groups: (1) C57BL/6 wt male mice (2% sucrose, oral administration), (2) TG-mice (2% sucrose, oral administration), and (3) TG-mice with D-P (2 mg/kg in 2% sucrose), respectively. After 3 months of treatment, mice were examined with behavioral assays.
# Locomotor activity was assayed with open field test. Running distance is one of the parameters quantifying locomotor activity (FIG. 4A). Wt control mice ran 882±55 cm during 10 min. TG-mice ran a much shorter distance (255±12 cm), while the running distance of TG-mice treated with D-P increased to 611±99 cm. […] D-P treatment in TG-mice increased rearing (19.3±2.0 times), times to explore the center (1.3±2.0 times), and duration to stay at the center (0.13±0.03 min). […] Daily oral D-P treatment for TG-mice improves locomotor activity and increased exploring activity, an instinct of animals. Anxiety was assayed with the EPM (FIG. 4D). The wt control spent 48.5±7.5% of total time in open arms and 33.5±3.2% in closed arms.
# [3] = tested on: TG-mice; assay: Novel context recognition (NCR); conditions: 1 mg/kg oral, 3 months, untreated TG 49.2±2.6%
# Description: Novel context recognition (NCR): Day 1-3 was Habituation (once/day). Two contexts (containers) A and B with similar field area were very different in shape. Context A was a rectangular, Context B was a circular container. The containers were open at the top with bedding to minimize stress and with video camera on top to record animal behavior. Each animal was placed in Context A without toys for 5 min, then back to home cage for 30 min. Then the animal was placed in Context B without toys for 5 min.
# Day 4 was for Familiarization: Two different sets of toys were used as the familiar objects referred to as FO1 and FO2 respectively. […]
# Day 5 (24 h from familiarization): Retention Trials was performed to determine the memory retention of each animal for familiarized objects. […] The test was videotaped and analyzed offline. The time spent exploring the familiar object (FO1) and exchanged object (FO2) were calculated where exploration equals touching the object with nose or paws or sniffing within 1.5 cm of the object. […]
# Mice were divided into four groups: (1) C57BL/6 wt male mice were treated with oral administration of 2% sucrose; (2) C57B1/6 wt male mice with oral administration of 1 mg/kg D-P in 2% sucrose; (3) TG-mice with oral administration of 2% sucrose; and (4) TG-mice with 1 mg/kg D-P in 2% sucrose. […] Next, we evaluated NCR (FIG. 3C). The RI was calculated.
substance,measurement,setting,value
"piperidin-1-ium (2R,3R)-2-(3,4-dihydroxy-5-oxidophenyl)-3,5-dihydroxy-4-oxochroman-7-olate [D-P]",time in open and closed arms (EPM),[1],spent a similar amount of time in each arm
same,running distance,"[2]; 2 mg/kg in 2% sucrose, 10 min, untreated TG 255±12",611±99 cm
same,duration to stay at the center,"[2]; 2 mg/kg, untreated TG 0.02±0.01",0.13 ± 0.03 min
same,times to explore the center,"[2]; 2 mg/kg, untreated TG 0.2±0.1",1.3±2.0 times
same,rearing,"[2]; 2 mg/kg, untreated TG 12.5±2.1",19.3±2.0 times
same,"Recognition Index (RI), novel context",[3],reversed the RI in TG-mice
